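Following 48 hours of exposure in 96-well plates, responses at five concentrations were used to interpolate endpoints linearly. GI50 marks 50% less growth.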 The source made the active and inactive calls. Rule as the data show it: active = GI50 up to about 1.1 µM and inactive = higher.
Legend:
Assay in all cases: growth of human tumour cells (NCI), 48 h
MOLT-4 = test system: MOLT-4
OVCAR-8 = test system: OVCAR-8
A498 = test system: A498
Hs-578T = test system: Hs-578T
SK-MEL-2 = test system: SK-MEL-2
HT-29 = test system: HT-29
U-251 = test system: U-251
UACC-257 = test system: UACC-257
MDA-N = test system: MDA-N
KM12 = test system: KM12
HCT-116 = test system: HCT-116
NCI-H460 = test system: NCI-H460
M14 = test system: M14
NCI-H226 = test system: NCI-H226
SK-MEL-5 = test system: SK-MEL-5
NCI-H522 = test system: NCI-H522
PC-3 = test system: PC-3
EKVX = test system: EKVX
RXF 393 = test system: RXF 393
SNB-75 = test system: SNB-75

Compound	GI50 (MOLT-4)	GI50 (OVCAR-8)	GI50 (A498)	GI50 (Hs-578T)	GI50 (SK-MEL-2)	GI50 (HT-29)	GI50 (U-251)	GI50 (UACC-257)	GI50 (MDA-N)	GI50 (KM12)	GI50 (HCT-116)	GI50 (NCI-H460)	GI50 (M14)	GI50 (NCI-H226)	GI50 (SK-MEL-5)	GI50 (NCI-H522)	GI50 (PC-3)	GI50 (EKVX)	GI50 (RXF 393)	GI50 (SNB-75)
Cc1ccc(S(=O)(=O)NC(=O)Nc2c(S(N)(=O)=O)cc(S(N)(=O)=O)c(Cl)c2Cl)cc1	> 100 µM (inactive)	> 100 µM (inactive)	> 100 µM (inactive)	> 100 µM (inactive)	> 100 µM (inactive)	> 100 µM (inactive)	> 100 µM (inactive)	> 100 µM (inactive)	> 100 µM (inactive)	> 100 µM (inactive)	> 100 µM (inactive)	> 100 µM (inactive)	> 100 µM (inactive)	> 100 µM (inactive)	> 100 µM (inactive)	> 100 µM (inactive)	> 100 µM (inactive)	> 100 µM (inactive)		
CCCSc1ccc2[nH]c(N3C(=O)/C(=C/c4ccc(O)c(OC)c4)N=C3c3ccccc3)cc2c1	4.23 µM (inactive)	21.3 µM (inactive)	6.35 µM (inactive)	0.0697 µM (active)	0.0775 µM (active)	3.02 µM (inactive)		4.56 µM (inactive)	2.32 µM (inactive)	0.0791 µM (active)	7.59 µM (inactive)	0.0422 µM (active)	3.58 µM (inactive)		4.51 µM (inactive)	4.07 µM (inactive)	13.2 µM (inactive)	14.5 µM (inactive)	18.8 µM (inactive)	26.2 µM (inactive)
C(/c1ccco1)=c1/nc(-c2ccccc2)n2c1nc1ccccc12	10.3 µM (inactive)	45.1 µM (inactive)	> 100 µM (inactive)	49.1 µM (inactive)	28.2 µM (inactive)	26.6 µM (inactive)	40.6 µM (inactive)	> 100 µM (inactive)	17.6 µM (inactive)	11.2 µM (inactive)	15.5 µM (inactive)	39.2 µM (inactive)	22.6 µM (inactive)	9.48 µM (inactive)	20.6 µM (inactive)		1.04 µM (active)	0.0107 µM (active)	20.2 µM (inactive)	
CC1=C[C@H](C[C@]2(C)c3c(c4c(C)cccc4oc3=O)O[C@@H]2C)OC1=O	21.1 µM (inactive)	68.1 µM (inactive)	> 100 µM (inactive)	63.1 µM (inactive)	> 100 µM (inactive)	35.6 µM (inactive)	> 100 µM (inactive)	> 100 µM (inactive)	36.6 µM (inactive)	> 100 µM (inactive)	15.7 µM (inactive)	> 100 µM (inactive)	66.1 µM (inactive)	> 100 µM (inactive)	> 100 µM (inactive)	22.6 µM (inactive)	> 100 µM (inactive)	> 100 µM (inactive)		> 100 µM (inactive)
Cc1c2oc(=O)c(C#N)cc2c2ccccn12	> 100 µM (inactive)	> 100 µM (inactive)	> 100 µM (inactive)	> 100 µM (inactive)	> 100 µM (inactive)	> 100 µM (inactive)	99.3 µM (inactive)	> 100 µM (inactive)	> 100 µM (inactive)	27.6 µM (inactive)	37.6 µM (inactive)	32.5 µM (inactive)	70.1 µM (inactive)	> 100 µM (inactive)	> 100 µM (inactive)		> 100 µM (inactive)	> 100 µM (inactive)	> 100 µM (inactive)	> 100 µM (inactive)
Nn1c(-c2ccccc2)n[nH]c1=O	> 100 µM (inactive)	> 100 µM (inactive)	> 100 µM (inactive)	58.3 µM (inactive)	> 100 µM (inactive)	> 100 µM (inactive)	> 100 µM (inactive)	> 100 µM (inactive)	> 100 µM (inactive)	> 100 µM (inactive)	> 100 µM (inactive)	> 100 µM (inactive)	> 100 µM (inactive)	> 100 µM (inactive)	> 100 µM (inactive)	> 100 µM (inactive)	> 100 µM (inactive)	> 100 µM (inactive)		> 100 µM (inactive)
O=c1[nH]/c(=C/c2ccc(OCc3ccccc3)cn2)c(=O)[nH]/c1=C/c1ccccc1	0.327 µM (active)	0.189 µM (active)	0.743 µM (active)	0.185 µM (active)		0.12 µM (active)	0.119 µM (active)		0.0402 µM (active)	0.118 µM (active)	0.146 µM (active)	0.132 µM (active)	0.129 µM (active)		0.106 µM (active)	0.0942 µM (active)	0.141 µM (active)	0.138 µM (active)	0.0951 µM (active)	0.0643 µM (active)
CC(=O)NC1=C(NCCCl)C(=O)c2ccccc2C1=O	25.1 µM (inactive)	20 µM (inactive)		43.5 µM (inactive)		26.4 µM (inactive)	39.1 µM (inactive)	15 µM (inactive)	21.4 µM (inactive)	31.8 µM (inactive)	20.5 µM (inactive)	32.1 µM (inactive)	13 µM (inactive)	49.1 µM (inactive)	16.9 µM (inactive)	20.5 µM (inactive)	22.3 µM (inactive)	> 100 µM (inactive)	30 µM (inactive)	24.3 µM (inactive)
CC12CCC3c4cc(Br)c(O)c(Br)c4CCC3C1CCC2O (centres undefined)	17.7 µM (inactive)	14 µM (inactive)	18.7 µM (inactive)	17.9 µM (inactive)	19.1 µM (inactive)	15.4 µM (inactive)	15 µM (inactive)	17.8 µM (inactive)	3.98 µM (inactive)	12.9 µM (inactive)	19.1 µM (inactive)		32.7 µM (inactive)	16.7 µM (inactive)			29.4 µM (inactive)	15.2 µM (inactive)	12.7 µM (inactive)	16.3 µM (inactive)
S=C1CC(c2ccc(Cl)cc2)Sc2ccccc2N1 (centres undefined)	> 10 µM (inactive)	> 100 µM (inactive)		11.9 µM (inactive)		> 100 µM (inactive)	41.3 µM (inactive)	> 100 µM (inactive)	> 100 µM (inactive)	45.7 µM (inactive)	19.1 µM (inactive)	60 µM (inactive)	24.3 µM (inactive)	50.5 µM (inactive)	25.3 µM (inactive)	21.6 µM (inactive)	24.2 µM (inactive)	34 µM (inactive)	16.2 µM (inactive)	> 10 µM (inactive)
C=CCOC(C)(C)C1=CCC(C)CC1 (centres undefined)	> 100 µM (inactive)	> 100 µM (inactive)	> 100 µM (inactive)	> 100 µM (inactive)		> 100 µM (inactive)	> 100 µM (inactive)	> 100 µM (inactive)	> 100 µM (inactive)	> 100 µM (inactive)	> 100 µM (inactive)	> 100 µM (inactive)	> 100 µM (inactive)		> 100 µM (inactive)	> 100 µM (inactive)	> 100 µM (inactive)	> 100 µM (inactive)	> 100 µM (inactive)	> 100 µM (inactive)
CC1=CC(=O)CC(C)(C)C1/C=C/C(C)=C/C=C/C(C)=C/C=C/C=C(C)/C=C/C=C(C)/C=C/C1=C(C)CC(O)CC1(C)C (centres undefined)	0.0853 µM (active)	32.2 µM (inactive)	94.2 µM (inactive)	38.9 µM (inactive)	> 100 µM (inactive)	30.8 µM (inactive)	37.8 µM (inactive)	37.7 µM (inactive)	29.9 µM (inactive)	31.8 µM (inactive)	18.4 µM (inactive)	38.3 µM (inactive)	33 µM (inactive)	> 100 µM (inactive)	33 µM (inactive)	23.2 µM (inactive)	45.3 µM (inactive)	57.3 µM (inactive)	20.1 µM (inactive)	
O=C1Cc2c([nH]c3c(Br)cccc23)-c2ccccc2N1	16.4 µM (inactive)	48.2 µM (inactive)	> 100 µM (inactive)	63.5 µM (inactive)	> 100 µM (inactive)	59.8 µM (inactive)	57.7 µM (inactive)	> 100 µM (inactive)	> 100 µM (inactive)	60 µM (inactive)	> 10 µM (inactive)	45.9 µM (inactive)	58.5 µM (inactive)	> 100 µM (inactive)	30.1 µM (inactive)		49.8 µM (inactive)	> 100 µM (inactive)		33 µM (inactive)
O=C1CCSCCC(=O)Nc2ccccc2N1	> 100 µM (inactive)	> 100 µM (inactive)	> 100 µM (inactive)	88.3 µM (inactive)	> 100 µM (inactive)	> 100 µM (inactive)	> 100 µM (inactive)	> 100 µM (inactive)	> 100 µM (inactive)	> 100 µM (inactive)	> 100 µM (inactive)	> 100 µM (inactive)	> 100 µM (inactive)	> 100 µM (inactive)	> 100 µM (inactive)	> 100 µM (inactive)	> 100 µM (inactive)	> 100 µM (inactive)	> 100 µM (inactive)	
NC(=O)c1nnc2ccc(F)cc2c1N	> 100 µM (inactive)	> 100 µM (inactive)	> 100 µM (inactive)	> 100 µM (inactive)	> 100 µM (inactive)	> 100 µM (inactive)	> 100 µM (inactive)	> 100 µM (inactive)	> 100 µM (inactive)	> 100 µM (inactive)	> 100 µM (inactive)	> 100 µM (inactive)	> 100 µM (inactive)	7.57 µM (inactive)	> 100 µM (inactive)	94.6 µM (inactive)	> 100 µM (inactive)	> 100 µM (inactive)		> 100 µM (inactive)

— ChEMBL document CHEMBL1201862, “PubChem BioAssay data set” (2004)
